The values that follow come from ChEMBL document CHEMBL1201862, “PubChem BioAssay data set” (2004).

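Step 1: Grow cells in 96-well plates. Step 2: Expose to compound for 48 hours at 5 concentrations. Step 3: Interpolate endpoints linearly; if unreached, use highest concentration. GI50 = concentration required for 50% inhibition of growth.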 Calls of active or inactive are those of the source. No stated cut-off is given here; in the data, active = GI50 up to about 1.1 µM and inactive = higher. Bounds are passed on as bounds.

Common to all, as to experiment: NCI anticancer screen, dose series, 48 h
In test [1] the test system is BT-549.
The test system of test [2] is HCT-116.
The test system of test [3] is HL-60.
Test [4] has as its system HOP-62.
The subject of test [5] is HT-29.
The test system of test [6] is Hs-578T.
Test [7] has as its system IGROV-1.
The subject of test [8] is K562.
For test [9], the system named is MCF7.
Test [10] relates to OVCAR-3.
Test [11] relates to PC-3.
The subject of test [12] is RXF 393.
Test [13] deals with SF-295.
The subject of test [14] is SK-MEL-2.
Test [15] has as its system SK-MEL-5.
Test [16] relates to SNB-19.
Test [17] has as its system TK-10.
Test [18] relates to U-251.
Test [19] relates to SF-268.

Consider `O=C(N/N=C\c1ccc([N+](=O)[O-])cc1)Nc1ccccc1`, for which the GI50 in test [1], in test [2], in [3], in test [4], in [5] and in test [6] was > 100 µM (inactive) throughout. Besides, the GI50 in test [7], in [8], in test [9], in test [10], in test [11] and in [12] was > 100 µM (inactive) in each case. Moreover, the GI50 in [13], in [14], in test [15], in [16], in test [17] and in test [18] was > 100 µM (inactive) in each case.
Consider `c1ccc2c(c1)nc1n2CNCC1`, for which the GI50 is > 100 µM (inactive) in test [1]; 43.2 µM (inactive) in test [2]; 68.5 µM (inactive) in test [3]; > 100 µM (inactive) in test [4]; 42.2 µM (inactive) in test [5]; > 100 µM (inactive) in test [6]. Besides, the GI50 in test [7] was 94 µM (inactive); in test [9], 45.7 µM (inactive); in test [10], > 100 µM (inactive); in test [11], > 100 µM (inactive); in test [12], 90.8 µM (inactive); in [19], > 100 µM (inactive). For the same compound, the GI50 in [13], in [14], in test [15], in test [16], in test [17] and in test [18] was > 100 µM (inactive) each time.
Regarding `O=C1CC(O)c2cscc21` (stereo not given), the GI50 in [1], in [2], in test [3], in test [4], in test [5] and in test [6] was > 100 µM (inactive) in each case. Further, the GI50 was > 100 µM (inactive) in [7]; 38.1 µM (inactive) in test [8]; > 100 µM (inactive) in test [9]; > 100 µM (inactive) in test [10]; > 100 µM (inactive) in test [11]; > 100 µM (inactive) in test [12]. Besides, the GI50 in [19], in test [13], in test [14], in [15], in test [17] and in test [18] was > 100 µM (inactive) each time.
For `Cc1ccc2nnc(NS(=O)(=O)c3cc(C)c(Cl)cc3S)n2n1`, the GI50 in [1], in [2], in [3], in test [4], in [5] and in test [6] was > 100 µM (inactive) in each case. In addition, the GI50 in test [7], in [8], in [9], in [10], in test [11] and in test [12] was > 100 µM (inactive) each time. For the same compound, the GI50 in test [19], in test [14], in test [15], in test [16], in [17] and in test [18] was > 100 µM (inactive) in each case.
For the compound `COc1cc(C(c2cc(OC)c(OC)c(OC)c2)N2C(=O)CCC2C(=O)O)cc(OC)c1OC` (stereo not given), the GI50 in [1], in test [2], in [3], in test [4], in test [5] and in [6] was > 100 µM (inactive) throughout. For the same compound, the GI50 in test [7], in [8], in [9], in test [10], in [11] and in test [12] was > 100 µM (inactive) throughout. Further, the GI50 in test [19], in [13], in [14], in [15], in test [16] and in test [18] was > 100 µM (inactive) each time.
Regarding `COc1cc2c(cc1OCCCCOc1cc(-c3ccc(F)cc3)nc(C)n1)N=C[C@@H]1CCCN1C2=O`, the GI50 in test [1] was 0.579 µM (active); in [2], 0.838 µM (active); in test [3], 0.279 µM (active); in test [4] it was 0.451 µM (active); in test [5] it was 0.442 µM (active); in test [6] it was 1.05 µM (active). For the same compound, the GI50 in test [7] is 0.731 µM (active); in [8] it was 0.267 µM (active); in test [9], 0.502 µM (active); in test [10], 0.336 µM (active); in [11], 0.759 µM (active); in test [12] it was 0.429 µM (active). In addition, the GI50 in test [19] is 0.771 µM (active); in [13], 0.303 µM (active); in test [14], 0.853 µM (active); in [15], 0.593 µM (active); in [16] it was 0.689 µM (active); in test [17] it was 0.224 µM (active). The GI50 in test [18] is 0.2 µM (active).
As for `c1ccc(-c2c3c(nc4c2CC[C@H]4NC2=NCCN2)[C@@H](NC2=NCCN2)CC3)cc1`, the GI50 was > 40.3 µM (inactive) in [1]; 48.5 µM (inactive) in test [2]; 11.2 µM (inactive) in test [3]; > 100 µM (inactive) in [4]; > 100 µM (inactive) in test [5]; > 100 µM (inactive) in test [6]. Besides, the GI50 in test [7] is 40 µM (inactive); in test [8] it was > 100 µM (inactive); in test [9] it was > 100 µM (inactive); in [10], 65.8 µM (inactive); in [11], 98.2 µM (inactive); in [12], > 100 µM (inactive). The GI50 is 63.4 µM (inactive) in test [19]; > 100 µM (inactive) in [13]; > 100 µM (inactive) in test [14]; > 100 µM (inactive) in test [15]; > 100 µM (inactive) in test [17]; 9.31 µM (inactive) in test [18].
Consider `Cc1cc(Nc2ccc(S(=O)(=O)O)c3cc(S(=O)(=O)O)cc(S(=O)(=O)O)c23)c2ccccc2n1`, for which the GI50 in [1], in test [2], in [3], in test [4], in test [5] and in test [6] was > 100 µM (inactive) throughout. Moreover, the GI50 in test [7], in test [9], in test [10], in test [11], in test [12] and in [19] was > 100 µM (inactive) in each case. For the same compound, the GI50 in [13], in [14], in test [15], in [16], in test [17] and in test [18] was > 100 µM (inactive) in each case.
